Results: patent US20230158157A1, “POTENT AND SELECTIVE DEGRADERS OF ALK” (DANA-FARBER CANCER INSTITUTE, INC., priority 2020, published 2023)
Like-named read-outs stand apart in the source and are kept apart here.

What was measured:
[1] = molecular target: T1, EML4-ALK (Homo sapiens, UniProt Q9UM73); experiment: EML4-ALK HiBit degradation assay in CRISPR-tagged H3122 cells (Nano-Glo HiBit Lytic Detection); format: cell-based
T1 construct: endogenous in cells; host or cells: H3122 (NSCLC), single-cell clone after CRISPR knock-in of HiBit; the other entry of the earlier key: EML4 (Q9HC35, Echinoderm microtubule-associated protein-like 4)
Procedure: (§1) NSCLC cell line H3122 was subjected to CRISPR to express EML4-ALK with HiBit-tag on its c-terminal. Single-cell clone was selected and expanded for the following assays that monitor endogenous EML4-ALK level in high throughput manner. Cells were seeded in 384-well white Tissue-culture plates at 3000 cells/well for 8 hours. […] HiBit signal was assessed using Nano-Glo® HiBit Lytic Detection System (Promega™). Degrader-treated was normalized by DMSO-treated controls and DC50 and Dmax were generated by GraphPad Prism® 8.0.
as §1, with “its c-terminus. A single-cell” for “its c-terminal. Single-cell”, “Degrader-treated cells were” for “Degrader-treated was”
as §1, with “its C-terminus. A single-cell” for “its c-terminal. Single-cell”, “Degrader-treated cells were” for “Degrader-treated was”

[2] = tested on: H3122 cells; experiment: CTG; format: cell-based; details: Homo sapiens, NCI-H3122, read-out: CTG IC50
[3] = NCI-H3122, Table 1, first Dmax column, H3122 EML4-ALK-HiBit, 16 hours, read-out: Degradation Dmax
[4] = NCI-H3122, Table 1, average Dmax, read-out: Degradation Avg. Dmax
[5] = Table 1, first DC50 column, H3122 EML4-ALK-HiBit, 16 hours, read-out: Degradation DC50
[6] = Table 1, average DC50, read-out: Degradation Avg. DC50
[7] = Table 1, second DC50 column, H3122 EML4-ALK-HiBit, 16 hours, read-out: Degradation DC50
[8] = NCI-H3122, Table 1, second Dmax column, H3122 EML4-ALK-HiBit, 16 hours, read-out: Degradation Dmax

T1 sequence (Q9UM73 with tags, fused parts or gaps): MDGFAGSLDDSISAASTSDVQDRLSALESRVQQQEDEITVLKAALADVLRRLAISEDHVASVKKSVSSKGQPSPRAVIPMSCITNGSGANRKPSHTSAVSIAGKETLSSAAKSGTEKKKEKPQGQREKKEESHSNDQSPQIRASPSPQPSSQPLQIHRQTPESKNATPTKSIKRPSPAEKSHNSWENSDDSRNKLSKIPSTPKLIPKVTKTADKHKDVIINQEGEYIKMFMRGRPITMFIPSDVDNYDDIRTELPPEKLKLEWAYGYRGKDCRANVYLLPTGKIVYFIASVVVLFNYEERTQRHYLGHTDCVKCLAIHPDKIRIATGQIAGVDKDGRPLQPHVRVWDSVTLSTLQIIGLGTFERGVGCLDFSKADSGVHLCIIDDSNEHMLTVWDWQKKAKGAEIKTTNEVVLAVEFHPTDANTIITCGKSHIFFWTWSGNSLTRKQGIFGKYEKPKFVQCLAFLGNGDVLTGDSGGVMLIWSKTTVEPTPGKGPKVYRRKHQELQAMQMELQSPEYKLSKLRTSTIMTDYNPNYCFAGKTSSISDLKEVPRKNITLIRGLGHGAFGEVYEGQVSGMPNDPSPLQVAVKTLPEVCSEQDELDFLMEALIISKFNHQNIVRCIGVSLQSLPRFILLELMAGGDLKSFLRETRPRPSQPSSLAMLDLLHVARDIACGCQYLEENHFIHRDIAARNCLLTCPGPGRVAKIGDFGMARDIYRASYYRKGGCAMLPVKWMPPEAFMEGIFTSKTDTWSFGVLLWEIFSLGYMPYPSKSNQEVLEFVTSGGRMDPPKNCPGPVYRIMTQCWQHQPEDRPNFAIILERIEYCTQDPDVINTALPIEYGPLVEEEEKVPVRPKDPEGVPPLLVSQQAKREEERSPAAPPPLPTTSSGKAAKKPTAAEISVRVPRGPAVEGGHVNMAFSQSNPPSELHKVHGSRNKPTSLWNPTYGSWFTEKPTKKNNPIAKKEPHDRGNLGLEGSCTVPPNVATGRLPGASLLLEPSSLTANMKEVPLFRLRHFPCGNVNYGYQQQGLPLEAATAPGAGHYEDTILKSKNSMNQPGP

Dmax ([1]; NCI-H3122, Table 2, first Dmax column, H3122 EML4-ALK-HiBit, 16 hours, read-out: Degradation Dmax) [%]	Dmax ([1]; NCI-H3122, Table 2, second Dmax column, H3122 EML4-ALK-HiBit, 16 hours, read-out: Degradation Dmax) [%]	Dmax ([1]; NCI-H3122, Table 2, average Dmax, read-out: Degradation Avg. Dmax) [%]	DC50 ([1]; Table 2, first DC50 column, H3122 EML4-ALK-HiBit, 16 hours, read-out: Degradation DC50) [nM]	DC50 ([1]; Table 2, second DC50 column, H3122 EML4-ALK-HiBit, 16 hours, read-out: Degradation DC50) [nM]	DC50 ([1]; Table 2, average DC50, read-out: Degradation Avg. DC50) [nM]	IC50 ([2]; Table 2) [nM]	Dmax [1, 3] [%]	Dmax [1, 4] [%]	DC50 [1, 5] [nM]	DC50 [1, 6] [nM]	IC50 ([2]; Table 1) [nM]	DC50 [1, 7] [nM]	Dmax [1, 8] [%]	SMILES
59.6	62	60.8	3270	1180	2230	788								COc1cc(CCNCCCCCSC(C)(C)C(NC(C)=O)C(=O)N2C[C@H](O)C[C@H]2C(=O)N[C@@H](C)c2ccc(-c3scnc3C)cc2)c(C)cc1Nc1ncc(Cl)c(Nc2ccccc2P(C)(C)=O)n1 (stereo partly shown) [Compound 73]
							24.1	31.4	67	57	76.9	46		COc1cc(CCN(C)C(=O)CCCCCNc2cccc3c2C(=O)N(C2CCC(=O)NC2=O)C3=O)c(C)cc1Nc1ncc(Cl)c(Nc2ccccc2S(=O)(=O)C(C)C)n1 (stereo not shown) [compound 2, N-(4-((5-chloro-4-((2-(isopropylsulfonyl)phenyl)amino)pyrimidin-2-yl)amino)-5-methoxy-2-methylphenethyl)-6-((2-(2,6-dioxopiperidin-3-yl)-1,3-dioxoisoindolin-4-yl)amino)-N-methylhexanamide]
											136	346	38.4	COc1cc(CCN(C)C(=O)CCCCCCCCNc2cccc3c2C(=O)N(C2CCC(=O)NC2=O)C3=O)c(C)cc1Nc1ncc(Cl)c(Nc2ccccc2S(=O)(=O)C(C)C)n1 (stereo not shown) [compound 3, N-(4-((5-chloro-4-((2-(isopropylsulfonyl)phenyl)amino)pyrimidin-2-yl)amino)-5-methoxy-2-methylphenethyl)-9-((2-(2,6-dioxopiperidin-3-yl)-1,3-dioxoisoindolin-4-yl)amino)-N-methylnonanamide]
							34	32.2	124	195	11.6	266	30.4	COc1cc(CCN(C)C(=O)CCCCCNC(=O)COc2cccc3c2C(=O)N(C2CCC(=O)NC2=O)C3=O)c(C)cc1Nc1ncc(Cl)c(Nc2ccccc2S(=O)(=O)C(C)C)n1 (stereo not shown) [compound 6, N-(4-((5-chloro-4-((2-(isopropylsulfonyl)phenyl)amino)pyrimidin-2-yl)amino)-5-methoxy-2-methylphenethyl)-6-(2-((2-(2,6-dioxopiperidin-3-yl)-1,3-dioxoisoindolin-4-yl)oxy)acetamido)-N-methylhexanamide]
							68.6	55.1	392	269	149	145	41.6	COc1cc(CCN(C)C(=O)CCCCCCC(=O)N[C@H](C(=O)N2C[C@H](O)C[C@H]2C(=O)N[C@@H](C)c2ccc(-c3scnc3C)cc2)C(C)(C)C)c(C)cc1Nc1ncc(Cl)c(Nc2ccccc2S(=O)(=O)C(C)C)n1 [compound 40, N^1-(4-((5-chloro-4-((2-(isopropylsulfonyl)phenyl)amino)pyrimidin-2-yl)amino)-5-methoxy-2-methylphenethyl)-N^8-((S)-1-((2S,4R)-4-hydroxy-2-(((S)-1-(4-(4-methylthiazol-5-yl)phenyl)ethyl)carbamoyl)pyrrolidin-1-yl)-3,3-dimethyl-1-oxobutan-2-yl)-N^1-methyloctanediamide]

Continued, compound first:

SMILES	Dmax ([1]; NCI-H3122, Table 2, first Dmax column, H3122 EML4-ALK-HiBit, 16 hours, read-out: Degradation Dmax) [%]	Dmax ([1]; NCI-H3122, Table 2, second Dmax column, H3122 EML4-ALK-HiBit, 16 hours, read-out: Degradation Dmax) [%]	Dmax ([1]; NCI-H3122, Table 2, average Dmax, read-out: Degradation Avg. Dmax) [%]	DC50 ([1]; Table 2, first DC50 column, H3122 EML4-ALK-HiBit, 16 hours, read-out: Degradation DC50) [nM]	DC50 ([1]; Table 2, second DC50 column, H3122 EML4-ALK-HiBit, 16 hours, read-out: Degradation DC50) [nM]	DC50 ([1]; Table 2, average DC50, read-out: Degradation Avg. DC50) [nM]	IC50 ([2]; Table 2) [nM]	Dmax [1, 3] [%]	Dmax [1, 4] [%]	DC50 [1, 5] [nM]	DC50 [1, 6] [nM]	IC50 ([2]; Table 1) [nM]	DC50 [1, 7] [nM]	Dmax [1, 8] [%]
COc1cc(CCN(C)C(=O)CCCNc2cccc3c2C(=O)N(C2CCC(=O)NC2=O)C3=O)c(C)cc1Nc1ncc(Cl)c(Nc2ccccc2S(=O)(=O)C(C)C)n1 (stereo not shown) [compound 1]								25.8	23.8	32	32	44.8		
COc1cc(CCN(C)C(=O)CCOCCOCCNc2cccc3c2C(=O)N(C2CCC(=O)NC2=O)C3=O)c(C)cc1Nc1ncc(Cl)c(Nc2ccccc2S(=O)(=O)C(C)C)n1 (stereo not shown) [compound 4, N-(4-((5-chloro-4-((2-(isopropylsulfonyl)phenyl)amino)pyrimidin-2-yl)amino)-5-methoxy-2-methylphenethyl)-3-(2-(2-((2-(2,6-dioxopiperidin-3-yl)-1,3-dioxoisoindolin-4-yl)amino)ethoxy)ethoxy)-N-methylpropanamide]								44.8	38.9	100	67	25.1	34	33
COc1cc(CCN(C)C(=O)CCCNC(=O)COc2cccc3c2C(=O)N(C2CCC(=O)NC2=O)C3=O)c(C)cc1Nc1ncc(Cl)c(Nc2ccccc2S(=O)(=O)C(C)C)n1 (stereo not shown) [compound 5, N-(4-((5-chloro-4-((2-(isopropylsulfonyl)phenyl)amino)pyrimidin-2-yl)amino)-5-methoxy-2-methylphenethyl)-4-(2-((2-(2,6-dioxopiperidin-3-yl)-1,3-dioxoisoindolin-4-yl)oxy)acetamido)-N-methylbutanamide]								44.5	44.5	239		149		
COc1cc(CCN(C)C(=O)CCCCCCCCNC(=O)COc2cccc3c2C(=O)N(C2CCC(=O)NC2=O)C3=O)c(C)cc1Nc1ncc(Cl)c(Nc2ccccc2S(=O)(=O)C(C)C)n1 (stereo not shown) [compound 7, N-(4-((5-chloro-4-((2-(isopropylsulfonyl)phenyl)amino)pyrimidin-2-yl)amino)-5-methoxy-2-methylphenethyl)-9-(2-((2-(2,6-dioxopiperidin-3-yl)-1,3-dioxoisoindolin-4-yl)oxy)acetamido)-N-methylnonanamide]								50.8	47.8	91	63	15.7	36	44.8
COc1cc(CCN(C)C(=O)CCOCCOCCNC(=O)COc2cccc3c2C(=O)N(C2CCC(=O)NC2=O)C3=O)c(C)cc1Nc1ncc(Cl)c(Nc2ccccc2S(=O)(=O)C(C)C)n1 (stereo not shown) [compound 8, N-(4-((5-chloro-4-((2-(isopropylsulfonyl)phenyl)amino)pyrimidin-2-yl)amino)-5-methoxy-2-methylphenethyl)-3-(2-(2-(2-((2-(2,6-dioxopiperidin-3-yl)-1,3-dioxoisoindolin-4-yl)oxy)acetamido)ethoxy)ethoxy)-N-methylpropanamide]								44.3	44.8	171	171	75		
COc1cc(CCN(C)C(=O)CCCC#Cc2cccc3c2C(=O)N(C2CCC(=O)NC2=O)C3=O)c(C)cc1Nc1ncc(Cl)c(Nc2ccccc2S(=O)(=O)C(C)C)n1 (stereo not shown) [compound 9, N-(4-((5-chloro-4-((2-(isopropylsulfonyl)phenyl)amino)pyrimidin-2-yl)amino)-5-methoxy-2-methylphenethyl)-6-(2-(2,6-dioxopiperidin-3-yl)-1,3-dioxoisoindolin-4-yl)-N-methylhex-5-ynamide]								54.1	54.1	265	265	122		
COc1cc(CCN(C)C(=O)CCCCCC#Cc2cccc3c2C(=O)N(C2CCC(=O)NC2=O)C3=O)c(C)cc1Nc1ncc(Cl)c(Nc2ccccc2S(=O)(=O)C(C)C)n1 (stereo not shown) [compound 10, N-(4-((5-chloro-4-((2-(isopropylsulfonyl)phenyl)amino)pyrimidin-2-yl)amino)-5-methoxy-2-methylphenethyl)-8-(2-(2,6-dioxopiperidin-3-yl)-1,3-dioxoisoindolin-4-yl)-N-methyloct-7-ynamide]								43.4	43.4	203	203	125		
COc1cc(CCN(C)C(=O)CCOCCOCCOCC#Cc2cccc3c2C(=O)N(C2CCC(=O)NC2=O)C3=O)c(C)cc1Nc1ncc(Cl)c(Nc2ccccc2S(=O)(=O)C(C)C)n1 (stereo not shown) [compound 11, N-(4-((5-chloro-4-((2-(isopropylsulfonyl)phenyl)amino)pyrimidin-2-yl)amino)-5-methoxy-2-methylphenethyl)-3-(2-(2-((3-(2-(2,6-dioxopiperidin-3-yl)-1,3-dioxoisoindolin-4-yl)prop-2-yn-1-yl)oxy)ethoxy)ethoxy)-N-methylpropanamide]								53.3	53.3	502	302	219		
